A word on the GI50: it is the concentration that inhibits growth by half.

We go through eleven compounds from ChEMBL document CHEMBL1201862, “PubChem BioAssay data set” (2004).

Some test systems named below: UO-31; SW-620; ACHN; SK-MEL-2; NCI-H460; SNB-75; OVCAR-3; HOP-62; SK-MEL-28; SF-539; SF-295; NCI-H23; LOX IMVI; HT-29; HCC 2998; Malme-3M; MCF7; PC-3; Hs-578T; HL-60.
Common to all, as to assay: DTP human tumour cell line panel, 48 h

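1) Cells in 96-well plates. 2) Compound, 48 h, 5 concentrations. 3) Linear interpolation between surrounding doses. 4) Unreached endpoint = highest concentration. GI50 = concentration required for 50% inhibition of growth.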 Calls of active or inactive are those of the source. Rule as the data show it: active = GI50 up to about 1.1 µM and inactive = higher.

Consider `S=C1c2cc(Cl)ccc2N=C(NC2CCCC2)C2CSCN12` (centres undefined), for which the GI50 with UO-31 was > 100 µM (inactive); in the test on SW-620, > 85.3 µM (inactive); with ACHN, > 100 µM (inactive); in the test with SK-MEL-2 it was > 76.6 µM (inactive); in the test with NCI-H460, > 100 µM (inactive); with SNB-75, 99.3 µM (inactive). Besides, the GI50 in the test with OVCAR-3 is > 68.7 µM (inactive); in the test on HOP-62, > 100 µM (inactive); with SK-MEL-28 it was > 100 µM (inactive); with SF-539, 89.9 µM (inactive); with SF-295, > 75.9 µM (inactive); with NCI-H23, 62.5 µM (inactive). Also, the GI50 in the test with LOX IMVI is > 100 µM (inactive); with HT-29, > 100 µM (inactive); with HCC 2998 it was > 100 µM (inactive); in the test with Malme-3M, > 100 µM (inactive); in the test with MCF7, > 71.4 µM (inactive); with PC-3 it was > 55.6 µM (inactive). In addition, in the test with Hs-578T, the GI50 was > 96.6 µM (inactive).

Take `Nc1nc(=O)c(/N=N/c2ccccc2)c(C(=O)O)[nH]1`: the GI50 with UO-31 is > 100 µM (inactive); in the test on SW-620 it was > 100 µM (inactive); in the test with ACHN, > 100 µM (inactive); in the test on SK-MEL-2, > 100 µM (inactive); in the test on NCI-H460, 45.7 µM (inactive); in the test on SNB-75 it was > 100 µM (inactive). In addition, the GI50 was 98.4 µM (inactive) in the test on OVCAR-3; 55.3 µM (inactive) in the test on HOP-62; > 100 µM (inactive) with SK-MEL-28; 37.9 µM (inactive) in the test with HL-60; > 100 µM (inactive) in the test with SF-539; 56.6 µM (inactive) with SF-295. The GI50 was > 100 µM (inactive) with NCI-H23; 74.6 µM (inactive) in the test on LOX IMVI; 45.5 µM (inactive) in the test with HT-29; 85.3 µM (inactive) in the test with Malme-3M; 79.3 µM (inactive) in the test with MCF7; > 100 µM (inactive) in the test with PC-3. In addition, the GI50 in the test on Hs-578T is > 100 µM (inactive).

Regarding `C[C@@H]1C[C@H]2[C@@H]3CCC4=CC(=O)C=C[C@]4(C)[C@@]3(Cl)[C@@H](Cl)C[C@]2(C)[C@@]1(O)C(=O)COP(=O)(O)O`, the GI50 in the test with UO-31, in the test on SW-620, in the test with ACHN, with SK-MEL-2, with SNB-75 and with OVCAR-3 was > 100 µM (inactive) each time. In addition, the GI50 with HOP-62, in the test with SK-MEL-28, in the test on SF-295, in the test on NCI-H23, in the test on LOX IMVI and in the test with HT-29 was > 100 µM (inactive) each time. The GI50 with HCC 2998, in the test on Malme-3M, in the test with MCF7, in the test on PC-3 and in the test on Hs-578T was > 100 µM (inactive) each time.

For the compound `Cc1ccc(-c2cc(-c3ccc(Cl)cc3)nc(/N=C3\C(=O)N(CN(C)C)c4ccccc43)n2)cc1`, the GI50 in the test on UO-31 was 90.8 µM (inactive); in the test with SW-620 it was 12.9 µM (inactive); with ACHN it was 64.1 µM (inactive); with SK-MEL-2, 31.4 µM (inactive); with NCI-H460, 39.9 µM (inactive); with SNB-75, 57.8 µM (inactive). Moreover, the GI50 was > 100 µM (inactive) in the test on OVCAR-3; 81.5 µM (inactive) in the test on HOP-62; > 100 µM (inactive) with SK-MEL-28; 7.89 µM (inactive) with HL-60; > 100 µM (inactive) in the test on SF-539; > 100 µM (inactive) in the test on SF-295. In addition, the GI50 was 33.6 µM (inactive) in the test with NCI-H23; 24.2 µM (inactive) in the test on LOX IMVI; 46.1 µM (inactive) with HT-29; > 100 µM (inactive) in the test on Malme-3M; 37.3 µM (inactive) in the test with MCF7; 50.9 µM (inactive) with PC-3. In addition, the GI50 with Hs-578T is 54.8 µM (inactive).

In the case of `Cn1c2ccccc2c2c3c(c4c5ccccc5n(C)c4c21)C(=O)NC3=O`, the GI50 with UO-31 was > 54.2 µM (inactive); with SW-620 it was > 74.6 µM (inactive); in the test with SK-MEL-2, > 26.5 µM (inactive); with NCI-H460 it was 7.6 µM (inactive); in the test on SNB-75, 29 µM (inactive); with HOP-62, 12.2 µM (inactive). Also, the GI50 is > 65.2 µM (inactive) in the test on SK-MEL-28; 10.2 µM (inactive) in the test on SF-539; 20.4 µM (inactive) in the test with SF-295; 15.1 µM (inactive) in the test on NCI-H23; > 34.8 µM (inactive) in the test on LOX IMVI; > 32.5 µM (inactive) with HT-29. The GI50 with HCC 2998 is > 33.7 µM (inactive); in the test on Malme-3M, 20.5 µM (inactive); with MCF7 it was 37.8 µM (inactive); with PC-3 it was > 31.4 µM (inactive); with Hs-578T it was 24.8 µM (inactive).

Regarding `COc1ccc2c(c1)CCc1c-2n(CCN2CCCCC2)c2ccc(OC)cc12`, the GI50 with UO-31, in the test on SW-620, in the test on ACHN, in the test with SK-MEL-2, with NCI-H460 and in the test with SNB-75 was > 100 µM (inactive) in each case. The GI50 in the test on OVCAR-3, with HOP-62, in the test with SK-MEL-28, in the test on SF-295, with NCI-H23 and in the test with LOX IMVI was > 100 µM (inactive) each time. The GI50 is 9.12 µM (inactive) in the test on HT-29; > 100 µM (inactive) with HCC 2998; > 100 µM (inactive) in the test on Malme-3M; > 100 µM (inactive) in the test on MCF7; > 100 µM (inactive) in the test with PC-3; > 100 µM (inactive) in the test on Hs-578T.

In the case of `COc1cccc2nc3c(C(=O)NCCN(C)C)cccc3cc12`, the GI50 was 1.11 µM (active) in the test with UO-31; 1.09 µM (active) in the test with SW-620; 0.655 µM (active) in the test with ACHN; 4.13 µM (inactive) in the test on SK-MEL-2; 0.195 µM (active) with NCI-H460; 4.88 µM (inactive) in the test on SNB-75. In addition, the GI50 with OVCAR-3 was 3.14 µM (inactive); with HOP-62 it was 1.19 µM (inactive); in the test on SK-MEL-28, 2.63 µM (inactive); in the test on SF-539, 1.85 µM (inactive); in the test on SF-295, 2.12 µM (inactive); with NCI-H23, 1.17 µM (inactive). Moreover, the 50% growth inhibitory concentration (GI50) in the test with LOX IMVI was 0.771 µM (active); with HT-29, 1.21 µM (inactive); in the test on HCC 2998, 3.44 µM (inactive); in the test on Malme-3M, 1.56 µM (inactive); in the test with MCF7 it was 1.12 µM (active); with PC-3, 2.34 µM (inactive). Also, in the test with Hs-578T, the GI50 was 1.82 µM (inactive).

Take `N=C(CC(=O)Nc1ccccn1)c1ccccc1`: the GI50 in the test with UO-31, in the test on SW-620, in the test on ACHN, in the test with SK-MEL-2, in the test with NCI-H460 and with SNB-75 was > 100 µM (inactive) each time. The GI50 in the test with OVCAR-3, in the test on HOP-62, in the test with SK-MEL-28, in the test with HL-60, in the test on SF-539 and in the test with SF-295 was > 100 µM (inactive) throughout. In addition, the GI50 in the test on NCI-H23, in the test on LOX IMVI, with HT-29, with Malme-3M, in the test on MCF7 and in the test on PC-3 was > 100 µM (inactive) throughout. In the test on Hs-578T, the GI50 is > 100 µM (inactive).

On to `CC(C)C12CCC3(CCC4C(C)(C(=O)O)CCCC4(C)C3C1)C(CN)C2` (centres undefined), for which the GI50 in the test with UO-31 was 40.4 µM (inactive); in the test with SW-620, 35.4 µM (inactive); with ACHN it was 33.4 µM (inactive); in the test on SK-MEL-2, 42.9 µM (inactive); in the test with NCI-H460 it was 21.5 µM (inactive); in the test on SNB-75 it was 88.5 µM (inactive). Moreover, the GI50 is 40.1 µM (inactive) in the test with OVCAR-3; 74.6 µM (inactive) in the test with HOP-62; 39.7 µM (inactive) in the test with SK-MEL-28; 28.2 µM (inactive) in the test with SF-539; 51.2 µM (inactive) with SF-295; 25.6 µM (inactive) in the test on NCI-H23. Besides, the GI50 with LOX IMVI is 18.7 µM (inactive); in the test with HT-29 it was 23.4 µM (inactive); in the test with HCC 2998 it was 18.4 µM (inactive); with Malme-3M, 45 µM (inactive); in the test with MCF7, 29.5 µM (inactive); with PC-3, 45.6 µM (inactive). Moreover, the GI50 with Hs-578T is 62.8 µM (inactive).

As to `O=CC(O)C(O)C(O)C1CNC(=S)O1` (centres undefined), the GI50 in the test with UO-31, with SW-620, in the test on ACHN, in the test on SK-MEL-2, in the test on NCI-H460 and in the test on SNB-75 was > 100 µM (inactive) in each case. The GI50 with OVCAR-3, in the test on HOP-62, with SK-MEL-28, with HL-60, in the test on SF-539 and in the test with SF-295 was > 100 µM (inactive) throughout. Moreover, the GI50 in the test on NCI-H23, with LOX IMVI, in the test with HT-29, in the test on Malme-3M, in the test on MCF7 and in the test with PC-3 was > 100 µM (inactive) each time. Further, in the test with Hs-578T, the GI50 is > 100 µM (inactive).

With `S=C(CSc1ccccc1)Nc1cccc2ccccc12`, the GI50 is 46.2 µM (inactive) in the test on UO-31; 55 µM (inactive) in the test on SW-620; 39.7 µM (inactive) in the test with ACHN; 24.3 µM (inactive) in the test on SK-MEL-2; 29.9 µM (inactive) in the test on NCI-H460; > 100 µM (inactive) in the test with SNB-75. For the same compound, the GI50 in the test with OVCAR-3 is 20.8 µM (inactive); in the test with HOP-62, 77.3 µM (inactive); in the test on SK-MEL-28, > 100 µM (inactive); with HL-60 it was 40.9 µM (inactive); in the test with SF-539, 28.4 µM (inactive); in the test with SF-295 it was 23.8 µM (inactive). In addition, the GI50 in the test on NCI-H23 was 41.4 µM (inactive); with LOX IMVI, 50.6 µM (inactive); with HT-29, 43.1 µM (inactive); with Malme-3M it was 40.3 µM (inactive); with MCF7, 33.8 µM (inactive); in the test on PC-3, 35.6 µM (inactive). Besides, the GI50 in the test on Hs-578T is 77.1 µM (inactive).
